According to patent US6544561B2 (The Lachlan Family Pty Ltd., priority 1997, dated 2003):

Tests used:
[1] = with lowered body weight; text refers to the trial of Example 5
Procedure: A trial involving people consuming bicarbonate anions in water was conducted. These people were middle aged and overweight and complained of tiredness and lethargy. No control group was maintained for the duration of the trial (people in an initial control group were unable to consume the volumes of soft water required). […] They were requested to decrease their food (calorie) intake considerably and to avoid dietary fats.
Bicarbonate concentration was established at a maximum of one gram per liter.
Each participant in the trial was advised to consume the bicarbonate solution ‘on an empty stomach’. […] Advice was given also to consume the solution in small amounts at set times each day. Consumption in this manner avoided a rapid increase in the bicarbonate concentrations of body fluids.

[2] = tested on: outbred (Swiss) female mice; conditions: drinking water with Mg2+ 120 mg per liter from weaning, fed on alternate days
Procedure: A short-lived mammalian species was chosen. […] Two hundred outbred (Swiss) female mice were divided randomly at weaning into two groups of 100 mice and were maintained under identical management and environmental conditions.
The second group of mice was supplied with drinking water that contained magnesium sulphate (Epsom salts) 1 gram per liter with a pH value between pH 6.5 and pH 7.0. This drinking water contained approximately Mg^2+ 120mg per liter. Bicarbonate anions were absent.
Both groups of mice were fed commercial laboratory food that contained 1 gram of magnesium per kilogram of food. Both groups of mice were fed on alternate days with no food available on the other days. Group-specific drinking water (as described above) was available at all times.

[3] = tested on: post menopausal women with osteoarthritis in the joints of their hands; conditions: in vivo
Source text: For an experimental trial, a group of post menopausal women were chosen who had clinical signs of osteoarthritis in the joints of their hands. The osteoarthritic joints included the distal and proximal interphalangeal joints of the fingers and the carpometacarpal joint of the thumbs. In all cases, loss of joint function was moderate to severe.
In all cases, the women suffered pain, swelling of the fingers and loss of joint movement. […] Women with affected thumbs had considerable loss of function and considerable pain. […] The women consumed between 2 to 3 liters of bicarbonate solution per day. […] Consumption was commenced at half a liter per day and increased by increments over a period of one month to 2 to 3 liters per day. Consumption occurred on an empty stomach to avoid the loss of bicarbonate by stomach acid. Consumption occurred in small amounts (300 mL) at set times each day to avoid rapid increases in bicarbonate concentrations of body fluids.

magnesium bicarbonate
Blood pressure [1]: reduction in high blood pressure to a normal value
Fifty Percent Survival [2]: 790 days
Maximum Life Span [2]: 1152 days
Pain and swelling associated with osteoarthritis [3]: alleviated the pain and swelling associated with osteoarthritis

O=S(=O)([O-])[O-].[Mg+2] [magnesium sulphate, reference compound]
Fifty Percent Survival [2]: 736 days
Maximum Life Span [2]: 1040 days
